From patent US20240392302A1, “METHOD FOR DETECTING AND QUANTIFYING RNA” (FLUORESCENCE DIAGNOSIS (SHANGHAI) BIOTECH COMPANY LTD., priority 2021, published 2024)

What was measured:
[1] = Function detection of the nucleic acid aptamer: fluorescence activation of I-5-14 by N16-1, its mutants and base-modified forms; format: biochemical; conditions: for fluorescence activation effect of base-modified N16-1 for I-5-14: base-modified aptamers; for Activation Multiple: 0.5 μM I-5-14 with 2.5 μM RNA
Protocol: A primer containing T7 promoter was used for amplification of corresponding cDNA of RNA to be detected, and T7 RNA polymerase (purchased from Fermentas) was used for obtaining RNA by means of transcription with recovered double-stranded cDNA as a template. 10 μL of 3 M NaAc and 115 μL of DEPC water were added into 20 μL of transcription system, and were mixed well before 150 μL of phenol chloroform-[…] mixture (phenol:chloroform:[…]=25:24:1) was added; then the mixture was mixed well by means of oscillation, and the supernatant was taken after centrifugation at 10,000 rpm for 5 min. An equal volume of chloroform solution was added and was mix well by means of oscillation, and then the supernatant was taken after centrifugation at 10,000 rpm for 5 min; the process was repeated once. 2.5 times the volume of anhydrous ethanol was added into the supernatant, and the mixture was placed in a refrigerator at −20° C. for 30 min and was subject to centrifugation at 12,000 rpm at 4° C. for 5 min; then the supernatant was removed, and the precipitation was cleaned twice with 75% pre-cooled anhydrous ethanol. After volatilization of the ethanol, the precipitation was re-suspended with an appropriate amount of screening buffer, and then was treated at 75° C. for 5 min and was placed at room temperature for more than 10 min for subsequent experiments.
(§1) Nucleic acid aptamer molecules of N16 or N16 mutants were prepared by using the commonly-used experimental method (I), 2.5 μM of nucleic acid aptamer molecules and 0.5 μM of fluorophore molecules were incubated in a detection buffer (40 mM of HEPES, pH 7.4, 125 mM of KCl, 5 mM of MgCl2, 5% DMSO), and the maximum excitation peak and the maximum emission peak of the fluorescence of the nucleic acid aptamer-fluorophore molecular complex were detected with Synergy Neo2 multifunctional enzyme-labeler. Synergy Neo2 multifunctional enzyme-labeler was used again to detect fluorescence intensity of the nucleic acid aptamer-fluorophore molecular complex under its maximum excitation and emission conditions, the control sample ([…] of fluorophore molecules without nucleic acid aptamer) was also measured under the same conditions, and the ratio of fluorescence intensity was calculated. For example, as for fluorescence of the complex formed by 2.5 μM of N16-1 nucleic acid aptamer and 0.5 μM of I-5-14 fluorophore molecules, the maximum excitation peak is 512 nm and the maximum emission peak is 574 nm. It was detected by the Synergy Neo2 multifunctional enzyme-labeler that the fluorescence intensity of the complex at an excitation condition of 512±10 nm and an emission condition of 574 nm±10 nm was 49,088, while the fluorescence intensity of the control (0.5 μM of I-5-14 fluorophore molecules) under the same detection conditions was 399, so the activation multiple of N16-1 nucleic acid aptamer to I-5-14 fluorophore molecules was 123.
According to the results, most N16-1 mutants with a single base mutation retained a relatively strong fluorescence activation effect (no smaller than 2 times) on I-5-14 (Table 2). Some N16-1 mutants with 2 to 5 base mutations still retained a relatively strong fluorescence activation effect (greater than 20 times) for I-5-14 (Table 3). In a word, many single-base and multi-base mutants of N16-1 might still retain the aptamer function of activating the 1-5-14 fluorophore molecules.

[2] = Binding constant of N16-1 and I-5-14; conditions: 10 nM N16-1 with I-5-14 of different concentrations
Protocol: In order to detect the binding constant of N16-1 and I-5-14, 10 nM of N16-1 was incubated with I-5-14 of different concentrations, so that fluorescence values thereof could be detected. According to the results, the binding constant of N16-1 and I-5-14 was 15.69 nM (FIG. 3D).

[3] = test system: F30-N16-1 RNA aptamer molecules; experiment: Binding of F30-N16-1 RNA aptamer molecules with different fluorescent molecules (fluorescence spectrum, activation multiple); format: biochemical; conditions: for Maximum emission peak (nm) / Maximum excitation peak (nm): complex with F30-N16-1; for Activation Multiple: fluorophore with F30-N16-1
Protocol: as §1
F30-N16-1 RNA aptamer molecules were prepared by using the commonly-used experimental method (I), and were used for detecting basic properties, including fluorescence spectrum and fluorescence activation multiple, of the binding of I-5-14 analogues with N16.

[4] = complex of 2.5 μM N16-1 and 0.5 μM I-5-14

Molecule | Maximum emission peak (nm) [3] [nm] | Maximum excitation peak (nm) [3] [nm] | Activation Multiple [3] | further results
N16-3: base-modified N16-1, SEQ ID NO: 5, some of the bases modified by 2′-F (GGGCNCCAGGNGCNGCNNCGGCAGGNAACGGACNNAGANCCACNGNACGCCC; some nucleotides 2'-fluoro modified, positions not given here) | – | – | – | fluorescence activation effect of base-modified N16-1 for I-5-14 [1]: significantly activate
N16-1: nucleic acid aptamer with a sequence SEQ ID NO: 1 (GGGCNCCAGGNGCNGCNNCGGCAGGNAACGGACNNAGANCCACNGNACGCCC; RNA, backbone and the base at N not given here) | – | – | – | fluorescence intensity of the complex ([1]; 2.5 μM N16-1, 0.5 μM I-5-14, excitation 512±10 nm, emission 574 nm±10 nm): 49,088; activation multiple of N16-1 nucleic acid aptamer to I-5-14 fluorophore molecules ([1]; 2.5 μM N16-1, 0.5 μM I-5-14, excitation 512±10 nm, emission 574±10 nm): 123; Activation Multiple ([1]; N16-1 mutants containing a single base mutation): 123; Activation Multiple ([1]; N16-1 mutants containing multi-base mutation): 123; maximum emission peak [1, 4]: 574 nm; maximum excitation peak [1, 4]: 512 nm; Kd [2]: 15.7 nM
N16-2: base-modified N16-1, SEQ ID NO: 4, stem-loop structure bases replaced with deoxyribonucleotides (GGGCNCCAGGNGCNGCNNCGGCAGGNAACGGACNNAGANCCACNGNACGCCC; some stem-loop nucleotides deoxyribonucleotides, positions not given here) | – | – | – | fluorescence activation effect of base-modified N16-1 for I-5-14 [1]: significantly activate
CN(C)c1cc2sc(/C=C3\SC(=S)NC3=O)cc2s1 [I-5-51] | 654 | 582 | 1125 | –
CN(CCO)c1ccc2nc(/C=C3\SC(=S)N(CCC(=O)O)C3=O)sc2c1 [I-5-70] | 686 | 556 | 12 | –
CN(CCO)c1ccc2c(c1)C(C)(C)c1cc(/C=C3\SC(=S)NC3=S)ccc1-2 [I-5-75] | 791 | 741 | 7 | –
CN1C(=O)/C(=C/c2ccc3c(c2)SCCN3C)SC1=S [I-5-31] | 610 | 503 | 125 | –
CN(CCO)c1cc2sc(/C=C3\SC(=O)NC3=S)cc2s1 [I-5-56] | 627 | 568 | 12 | –
CN1C(=O)S/C(=C\c2cc3c4c(c2)CCCN4CCC3)C1=S [I-5-46] | 633 | 542 | 7 | –
CN(CCO)c1cc2sc(/C=C3\SC(=S)NC3=O)cc2s1 [I-5-57] | 647 | 579 | 1279 | –
CN1C(=O)/C(=C/c2ccc(-c3ccc(N(C)CCO)s3)cc2)NC1=S [I-5-63] | 673 | 521 | 6 | –
CN1C(=O)/C(=C/c2cc3sc(N(CCO)CCO)cc3s2)NC1=S [I-5-60] | 626 | 552 | 8 | –
CN1CCCc2cc(/C=C3\SC(=O)NC3=O)ccc21 [I-5-39] | 509 | 429 | 14 | –
CN(CCO)c1ccc2cc(/C=C3\SC(=O)NC3=O)sc2c1 [I-5-65] | 605 | 462 | 35 | –
CN(C)c1ccc(/C=C2\SC(=S)NC2=S)cc1 [I-5-22] | 657 | 613 | 126 | –
CN(C)c1ccc(/C=C2\SC(=O)NC2=O)s1 [I-5-11] | 524 | 493 | 9 | –
CN(C)c1ccc2c(c1)C(C)(C)c1cc(/C=C3\SC(=O)NC3=O)ccc1-2 [I-5-74] | 691 | 635 | 14 | –
CN1CCSc2cc(/C=C3\SC(=O)NC3=O)ccc21 [I-5-33] | 553 | 442 | 154 | –
